Results on two compounds are retold here after patent US5892063A (Hauser, Inc., priority 1997, dated 1999).

SMILES strings stand for the structures. Bounds are passed on as bounds.

As usually defined, the GI50 is the concentration at which growth is held to half of that of the control.

One assay concerns microtubule. The settings on record: cited from earlier work.
The next assay has as its system tumor models. The settings on record: cited from earlier work.
In assay [1] the test system is cell line panel (leukemia, non-small-cell lung cancer, colon, CNS, melanoma, ovarian, renal, prostate and breast cancers). The assay is described as follows: SRB growth screen, whole cell line panel. In kind it is cell-based. As to the method:
The screening assay is performed on 96-well microtitre plates. […] Duplicate wells are prepared for all concentrations; "time-zero" and "nodrug" controls are also provided for each test. […] One hundred microliters of SRB solution (0.4% w/v in 1% acetic acid) is added to each microtitre well and incubated for 10 minutes at room temperature.
The response parameters GI50 and LC50 are interpolated values representing the concentrations at which the percentage growth (PG) is +50 and -50 respectively:
GI50 is the concentration for which the PG=+50.
TGI is the concentration for which PG=0.
LC50 is the concentration for which the PG=-50. […] This is interpreted as cytotoxicity.
The data represented in Table I is graphically represented in FIGS. 1a and 1b through FIGS. 9a and 9b. […] The following is an example of how the information in Table I and in the Figures is interpreted.

Another assay has as its system HS 578T. The experiment in a line: SRB growth screen, breast cancer HS 578T. The settings on record: Homo sapiens, 48 h.

As to `CC(=O)O[C@H]1C(=O)[C@@]2(C)[C@H]([C@H](OC(=O)c3ccccc3)[C@]3(O)C[C@H](OC(=O)[C@H](O)[C@@H](NC(=O)c4ccccc4)c4ccccc4)C(C)=C1C3(C)C)[C@]1(OC(C)=O)CO[C@@H]1C[C@@H]2O` [Paclitaxel, paclitaxel, reference compound], the effect on microtubules entry in the assay with microtubule was “stabilizes microtubules and inhibits depolymerization back to tubulin”. For the same compound, in the assay with tumor models, the “activity in model tumor systems” value is “excellent activity”.
Take `CC(=O)O[C@H]1C(=O)[C@@]2(C)[C@H]([C@H](OC(=O)c3ccccc3)[C@]3(O)C[C@H](OC(=O)[C@H](O)[C@@H](NC(=O)C4(C)OC4C)c4ccccc4)C(C)=C1C3(C)C)[C@]1(OC(C)=O)CO[C@@H]1C[C@@H]2O` (stereo partly shown) [Ceph-epoxide, cephalomannine epoxide]: the “potency as compared to paclitaxel” value in assay [1] (on the whole, all cell lines) is “equivalent to and in many instances greater than that of paclitaxel's”. In addition, the “Log10 TGI, Range” value in assay [1] (range over cell lines (log10 units)) is given as 4.00. Besides, the 50% growth inhibitory concentration (GI50) in the assay with HS 578T (read-out: Log10 GI50 (converted)) was under 10 nM. For the same compound, in the assay with HS 578T (read-out: Log10 LC50 (converted)), the CC50 is over 100000 nM. Also, the IC (TGI) in the assay on HS 578T (read-out: Log10 TGI) was 55 nM.
